# Results published in patent US7354948B2, “Methods for treatment of chronic uveitis using cyclopropyl-n-{2-[(1S)-1-(3-ethoxy-4-methoxyphenyl)-2-(methylsulfonyl)ethyl]-3-oxoisoindoline-4-yl}carboxamide” (Celgene Corporation, priority 2002, dated 2008).
# Columns and labels:
# [1] = tested on: TNF-α production following LPS-stimulation of human PBMC and human whole blood; assay: Modulation of cytokine production, in vitro studies; assay type: cell-based; conditions: compared with thalidomide
# Text: In a specific embodiment, the pharmacological properties of 3-(3,4-dimethoxy-phenyl)-3-(1-oxo-1,3-dihydro-isoindol-2-yl)-propionamide are characterized in in vitro studies. Studies examine the effects of the compound on the production of various cytokines. Inhibition of TNF-α production following LPS-stimulation of human PBMC and human whole blood by the compound is investigated in vitro. […] The pharmacological effects of 3-(3,4-dimethoxy-phenyl)-3-(1-oxo-1,3-dihydro-isoindol-2-yl)-propionamide may derive from its action as an inhibitor of the generation of inflammatory cytokines.
# anesthetized dogs = assay: Toxicology study: cardiovascular and respiratory function in anesthetized dogs; assay type: in vivo, Beagle dogs
# Method: The effects of 3-(3,4-dimethoxy-phenyl)-3-(1-oxo-1,3-dihydro-isoindol-2-yl)-propionamide on cardiovascular and respiratory function are investigated in anesthetized dogs. Two groups of Beagle dogs (2/sex/group) are used. One group receives three doses of vehicle only and the other receives three ascending doses of the compound (200, 400, and 800 mg/kg). In all cases, doses of the compound or vehicle are successively administered via infusion through the jugular vein separated by intervals of at least 30 minutes.
structure (smiles),measurement,setting,value
"COc1ccc(C(CC(N)=O)N2Cc3ccccc3C2=O)cc1OC (stereo not shown) [3-(3,4-dimethoxy-phenyl)-3-(1-oxo-1,3-dihydro-isoindol-2-yl)-propionamide]","pharmacological activity profile, potency relative to thalidomide",[1],five to fifty times more potent than thalidomide
same,cardiovascular and respiratory changes,"anesthetized dogs; all doses (200, 400, and 800 mg/kg), infusion through the jugular vein, compared to vehicle control group",minimal
same,arterial blood pressure,"anesthetized dogs; following the low dose, only statistically significant difference between vehicle and treatment groups",small increase
same,arterial blood pressure effect,anesthetized dogs; higher doses,not seen
